Key:
[1] = biological target: T1, CNGA2RE:B1b (Rattus norvegicus, UniProt A0A8I5ZN27+Q00195, R538E); assay: Ligand binding, confocal patch-clamp fluorometry; set-up: key to Ligand binding to CNGB1b: +: ligand binding to the respective modulatory subunits was either observed or not; −: ligand binding to the respective modulatory subunits was either observed or not; details: for Ligand binding to CNGB1b: construct CNGA2RE:B1b
T1 construct: expressed in transfected cells; host or cells: Xenopus laevis oocytes (cRNA injection), excised patches
Text: (§1) The channels to be studied were expressed in Xenopus oocytes. We first tested the subunit composition in our channels when coexpressing different combinations of subunits by single-channel recordings. For CNGA2:A4, CNGA2:B1b and CNGA2:A4:B1b channels we exclusively obtained the specific and easily distinguishable single-channel activity reported earlier when injecting respective amounts of RNA[7][13]. We therefore assumed that the channels formed had always the expected subunit composition. The specific binding of cyclic nucleotides and the activation of the CNG channels were measured in parallel by means of confocal patch-clamp fluorometry in excised patches, using fluorescent cyclic nucleotide derivatives. The method has been described previously.
To study ligand binding to the CNGB1b subunit selectively, the binding domain of the CNGA2 subunits was disabled by either the point mutation R538E (red crosses in the cartoons) or T539M (blue crosses in the cartoons)[13][20]. […] To this end, CNGB1b was coexpressed with CNGA2RE.
(§2) The ligand binding was measured in macropatches by patch-clamp fluorometry[41][42] combined with confocal microscopy. […] Recordings were performed with an LSM 510 or 710 confocal microscope (Zeiss, Jena, Germany) and were triggered by the ISO3 software (MFK, Niedernhausen, Germany). To distinguish between the fluorescence of the unbound ligands from that of the bound ligands, a second dye, DY647 (Dyomics, Jena, Germany), was added to the bath solution. The 543-nm and 633-nm lines of a He-Ne laser were used to excite fcAMP/fcGMP and DY647, respectively. The method of confocal patch-clamp fluorometry has been described in detail previously.

[2] = biological target: T2, CNGA2:A4:B1b channels (Rattus norvegicus, UniProt A0A8I5ZN27+Q00195+Q64359); assay: Concentration-activation relationship, inside-out patch-clamp; format: biochemical
T2 construct: expressed in transfected cells; host or cells: Xenopus laevis oocytes (cRNA injection 2:1:1), excised inside-out patches
Protocol: (§3) Patch-clamp experiments were performed using an Axopatch 200B amplifier (Molecular Devices LLC, CA, U.S.A.) in the inside-out configuration. The patch pipettes for recording of macroscopic currents were pulled from borosilicate glass tubing (outer diameter 2.0 mm, inner diameter 1.0 mm; Hilgenberg GmbH, Germany). The initial resistance was 0.7–1.3 MΩ. The patches were formed as pushed inside-out patches. […] Cyclic nucleotide concentration jumps were performed using a double-barreled glass pipette mounted on a piezo-driven device. Intracellular (bath) and extracellular (pipette) solutions contained (mM) 150 KCl, 1 EGTA, 5 Hepes, pH = 7.4 with KOH. […] Currents in the absence of the cyclic nucleotide were subtracted. All patches included in this study were first tested for channel expression in the presence of a saturating ligand concentration. Only patches with large current, i.e. a large number of channels, were included in our statistics. The currents were measured at +10 mV or, if mentioned, at +100 mV.
Fits of equations to data points were performed with the 8.1G® software (OriginLab Corporation, Northampton, U.S.A.). Concentration-activation relationships were obtained by relating the actual current amplitude, I, to the maximum current amplitude elicited by a saturating concentration of ligand, Imax, and plotting this ratio as function of the ligand concentration, x. The concentration-activation data were fitted using the Hill equation
where EC50 is the ligand concentration of half maximum effect and H the Hill coefficient.
In fHcAMP the dye DY547 is coupled to
(b) Concentration-activation relationships of the CNGA2:A4:B1b channels activated by either
The currents were recorded […]

[3] = biological target: T3, CNGA2RE:A4RE:B1b (Rattus norvegicus, UniProt A0A8I5ZN27+Q00195+Q64359, R430E/R538E); assay: Concentration-activation relationship and activation by fluorescent ligands, patch-clamp; format: biochemical; details: 2 μM fHcAMP; of the saturating activation measured with 4 mM cGMP
T3 construct: expressed in transfected cells; host or cells: Xenopus laevis oocytes (cRNA injection), excised inside-out patches
Protocol: as §3, with “In order to determine the apparent affinity of the modulatory subunits in heterotetrameric CNGA2:A4:B1b channels for cGMP, we coexpressed each of them with disabled neighbored subunits, generating themselves activation effects only at much higher ligand concentrations. In case of two well-separated current components, this would allow us to determine the EC50 value for the CNGB1b and CNGA4 subunit in functional heterotetrameric channels. Patch-clamp” for “Patch-clamp”, “The initial resistance was 0.7–1.3 MΩ.” left out, “mV. Fits of equations to data points were performed with the 8.1G® software (OriginLab Corporation, Northampton, U.S.A.). Concentration-activation relationships were obtained by relating the actual current amplitude, I, to the maximum current amplitude elicited by a saturating concentration of ligand, Imax, and plotting this ratio as function of the ligand concentration, x.” for “mV.”

[4] = biological target: T4, CNGA2RE:A4RE:B1bRE (Rattus norvegicus, UniProt A0A8I5ZN27+Q00195+Q64359, R1106E/R430E/R538E); assay: Channel activation during confocal patch-clamp fluorometry; format: biochemical; details: 2 μM fHcAMP; binding domain in CNGB1b also disabled
T4 construct: expressed in transfected cells; host or cells: Xenopus laevis oocytes (cRNA injection), excised inside-out patches
Protocol: (§4) To verify the hypothesis that the CNGB1b subunit in CNGA2:A4:B1b channels binds cyclic nucleotides, we coexpressed CNGB1b with CNGA4RE and either CNGA2RE or CNGA2TM and measured ligand binding in the presence of 10 μM fcGMP. […] To verify the specificity of the binding to the CNGB1b subunit in these heterotetrameric channels, we coexpressed the CNGB1bRE subunit with CNGA2RE and CNGA4RE.
Figure 2 In a CNGA2:A4 background the CNGB1b subunit binds both fcGMP and fHcAMP and activates the channel. (a) Binding of fcGMP to the CNGB1b subunit evokes channel activation. Binding of fcGMP to CNGB1b was observed when coexpressed with either CNGA2RE:A4RE or CNGA2TM:A4RE (upper diagram). […] (b) Binding of fHcAMP to CNGB1b was observed when coexpressed with both CNGA2RE and CNGA4RE. When disabling the binding domain of CNGB1b, the fluorescence intensity was nearly abolished. Correspondingly, CNGA2RE:A4RE:B1b channels were activated by the ligand only when the CNGB1b binding site was available.
as §3, §2

[5] = biological target: T3, CNGA2RE:A4RE:B1b; assay: Ligand binding, confocal patch-clamp fluorometry; set-up: key to Ligand binding to CNGA4 / Ligand binding to CNGB1b: +: ligand binding to the respective modulatory subunits was either observed or not; −: ligand binding to the respective modulatory subunits was either observed or not
Text: as §1, §4, §2

[6] = biological target: T4, CNGA2RE:A4RE:B1bRE; assay: Ligand binding, confocal patch-clamp fluorometry; set-up: key to Ligand binding to CNGA4 / Ligand binding to CNGB1b: +: ligand binding to the respective modulatory subunits was either observed or not; −: ligand binding to the respective modulatory subunits was either observed or not
Text: as §1, §4, §2

T2 sequence (Q00195 whole entry): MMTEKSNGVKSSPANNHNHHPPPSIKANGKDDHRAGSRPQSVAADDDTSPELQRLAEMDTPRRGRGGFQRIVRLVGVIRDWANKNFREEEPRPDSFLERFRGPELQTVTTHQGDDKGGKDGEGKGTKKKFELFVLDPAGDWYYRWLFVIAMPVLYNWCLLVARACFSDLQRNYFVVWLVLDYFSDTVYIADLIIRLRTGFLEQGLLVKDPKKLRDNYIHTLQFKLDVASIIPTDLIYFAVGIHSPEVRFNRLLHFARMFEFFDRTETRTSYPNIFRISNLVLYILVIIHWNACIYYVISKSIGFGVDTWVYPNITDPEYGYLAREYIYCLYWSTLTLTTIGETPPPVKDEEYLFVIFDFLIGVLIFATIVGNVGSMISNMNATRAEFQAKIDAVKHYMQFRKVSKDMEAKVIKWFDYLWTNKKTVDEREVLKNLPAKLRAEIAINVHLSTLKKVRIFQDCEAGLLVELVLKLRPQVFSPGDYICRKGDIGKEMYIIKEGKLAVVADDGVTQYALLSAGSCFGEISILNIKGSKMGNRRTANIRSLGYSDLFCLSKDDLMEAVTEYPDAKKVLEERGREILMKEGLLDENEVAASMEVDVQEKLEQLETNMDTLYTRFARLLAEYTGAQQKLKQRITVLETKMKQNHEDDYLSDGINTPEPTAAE
T2 sequence (Q64359 whole entry): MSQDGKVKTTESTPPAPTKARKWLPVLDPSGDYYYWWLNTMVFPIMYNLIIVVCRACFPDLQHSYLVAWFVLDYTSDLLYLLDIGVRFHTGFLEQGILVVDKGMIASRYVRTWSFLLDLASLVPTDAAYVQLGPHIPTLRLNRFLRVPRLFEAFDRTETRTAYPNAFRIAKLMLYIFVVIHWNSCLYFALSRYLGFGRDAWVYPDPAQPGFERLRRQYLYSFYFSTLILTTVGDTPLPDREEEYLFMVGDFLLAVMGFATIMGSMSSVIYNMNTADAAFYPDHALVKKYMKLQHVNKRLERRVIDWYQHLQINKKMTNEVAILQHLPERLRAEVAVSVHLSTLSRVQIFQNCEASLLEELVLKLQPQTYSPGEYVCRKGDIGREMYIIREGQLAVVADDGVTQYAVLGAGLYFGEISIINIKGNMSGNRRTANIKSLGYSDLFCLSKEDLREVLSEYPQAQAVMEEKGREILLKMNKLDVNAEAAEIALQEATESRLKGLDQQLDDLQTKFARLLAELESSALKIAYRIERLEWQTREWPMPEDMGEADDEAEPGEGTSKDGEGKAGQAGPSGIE
T2 sequence (A0A8I5ZN27 1-858 isoform A0A8I5ZN27-2): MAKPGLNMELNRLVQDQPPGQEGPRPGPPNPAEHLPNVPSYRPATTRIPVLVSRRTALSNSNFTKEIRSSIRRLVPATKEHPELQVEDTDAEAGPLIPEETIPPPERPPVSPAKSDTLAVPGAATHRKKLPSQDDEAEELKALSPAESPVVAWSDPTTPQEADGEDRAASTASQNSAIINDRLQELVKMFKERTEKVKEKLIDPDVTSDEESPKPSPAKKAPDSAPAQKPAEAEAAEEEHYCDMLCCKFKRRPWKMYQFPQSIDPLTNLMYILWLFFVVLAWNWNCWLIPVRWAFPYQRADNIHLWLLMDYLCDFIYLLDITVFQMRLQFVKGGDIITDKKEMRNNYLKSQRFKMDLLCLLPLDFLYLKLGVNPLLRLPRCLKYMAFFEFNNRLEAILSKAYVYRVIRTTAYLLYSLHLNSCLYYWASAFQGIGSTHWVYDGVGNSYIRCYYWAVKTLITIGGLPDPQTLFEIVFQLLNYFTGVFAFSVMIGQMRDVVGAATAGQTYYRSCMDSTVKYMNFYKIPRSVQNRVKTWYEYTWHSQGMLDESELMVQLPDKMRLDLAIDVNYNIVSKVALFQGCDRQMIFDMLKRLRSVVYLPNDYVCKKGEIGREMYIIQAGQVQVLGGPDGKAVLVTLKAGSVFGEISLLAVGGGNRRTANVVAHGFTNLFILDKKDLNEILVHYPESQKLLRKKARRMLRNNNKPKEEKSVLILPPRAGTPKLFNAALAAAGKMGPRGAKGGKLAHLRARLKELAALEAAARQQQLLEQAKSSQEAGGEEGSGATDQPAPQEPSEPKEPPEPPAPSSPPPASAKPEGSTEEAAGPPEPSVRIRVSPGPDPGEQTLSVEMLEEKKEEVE
T3 sequence (Q00195 whole entry R538E): as the sequence (Q00195 whole entry) above, with R538E counted along it
T3 sequence (Q64359 whole entry R430E): as the sequence (Q64359 whole entry) above, with R430E counted along it
T3 sequence (A0A8I5ZN27 1-858 isoform A0A8I5ZN27-2, stated change not applied): as the sequence (A0A8I5ZN27 1-858 isoform A0A8I5ZN27-2) above
T4 sequence (Q00195 whole entry R538E, the tested form may be a part): as the sequence (Q00195 whole entry) above, with R538E counted along it
T4 sequence (Q64359 whole entry R430E, the tested form may be a part): as the sequence (Q64359 whole entry) above, with R430E counted along it
T4 sequence (A0A8I5ZN27 1-858 isoform A0A8I5ZN27-2 R657E): as the sequence (A0A8I5ZN27 1-858 isoform A0A8I5ZN27-2) above, with R657E counted along it
T1 sequence (Q00195 whole entry R538E): as the sequence (Q00195 whole entry) above, with R538E counted along it
T1 sequence (A0A8I5ZN27 1-858 isoform A0A8I5ZN27-2, stated change not applied): as the sequence (A0A8I5ZN27 1-858 isoform A0A8I5ZN27-2) above

Row | ligand binding to the CNGB1b subunit (in words) ([1]; 10 μM, CNGB1b coexpressed with CNGA2RE) | Ligand binding to CNGB1b ([1]; 10 μM) | EC50 ([2]; CNGA2:A4:B1b, steady-state, +10 mV, equation (1), 7-10 patches) [µM] | H ([2]; Hill coefficient, CNGA2:A4:B1b, steady-state, +10 mV) | potency to open CNGA2:A4:B1b channels compared to fcAMP ([2]; relative to fcAMP) | channel activation [3] [%] | activation [4] | Ligand binding to CNGB1b ([1]; 2 μM) | binding to the CNGB1b subunit (in words) ([1]; fHcAMP, CNGA2RE:B1b channels) | binding to the CNGB1b subunit (in words) ([5]; 2 μM fHcAMP, CNGA2RE:A4RE:B1b channels) | Ligand binding to CNGB1b ([5]; 2 μM, construct CNGA2RE:A4RE:B1b) | binding to the CNGB1b subunit (in words) ([6]; 2 μM fHcAMP, binding domain in CNGB1b also disabled) | Ligand binding to CNGB1b ([6]; 2 μM, construct CNGA2RE:A4RE:B1bRE) | Substance
1 | no ligand binding | − |  |  |  |  |  |  |  |  |  |  |  | 8-[DY-547]-AET-cAMP [fcAMP]
2 |  |  | 0.59 | 1.2 | eight times higher potency | 3.1 ± 0.7 | abolished | − | did not detectably bind | binds | + | abolished | − | 8-[DY-547]-AHT-cAMP [fHcAMP]
